ChEMBL document CHEMBL3885861, “Open TG-GATES”

Species: Rattus norvegicus
Experiment: Open TG-GATES - Regimen: Daily Repeat
Format: toxicity, organism-based, Sprague-Dawley
Parameters: regimen Daily Repeat, gender Male, age 6 weeks
Settings: in vivo, iv, 0 mg/kg, route intravenous injection, dose level Control; for KIDNEY_L / KIDNEY_R / KIDNEY_TOTAL: tissue Kidney; for LIVER: tissue Liver
[1] = 72 h, tissue Plasma, time 3 day
[2] = […], tissue Plasma, time 14 day
[3] = […], tissue Plasma, time 28 day

Question: CARBOPLATIN was tested. Which TERMINAL_BW (72 h, time 3 day) did it give?
Answer: 221.4 g

Question: And the APTT (72 h, tissue Blood, time 3 day)?
Answer: 23.3 s

Question: What about the Bas (72 h, tissue Blood, time 3 day) of the same sequence?
Answer: 0%

Question: And the Eos (72 h, tissue Blood, time 3 day)?
Answer: 0.8%

Question: What about the Fbg (72 h, tissue Blood, time 3 day) of the same sequence?
Answer: 298.8 mg/dL

Question: What about the Hb (72 h, tissue Blood, time 3 day) of the same sequence?
Answer: 13 g/dL

Question: And the Ht (72 h, tissue Blood, time 3 day)?
Answer: 40.2%

Question: What about the Lym (72 h, tissue Blood, time 3 day) of the same sequence?
Answer: 80.4%

Question: What about the MCHC (72 h, tissue Blood, time 3 day) of the same sequence?
Answer: 32.2%

Question: And the MCV (72 h, tissue Blood, time 3 day)?
Answer: 63.6 fL

Question: What about the Mono (72 h, tissue Blood, time 3 day) of the same sequence?
Answer: 2.6%

Question: What about the Neu (72 h, tissue Blood, time 3 day) of the same sequence?
Answer: 15.4%

Question: And the PT (72 h, tissue Blood, time 3 day)?
Answer: 16.2 s

Question: What about the Plat (72 h, tissue Blood, time 3 day) of the same sequence?
Answer: 127.8 x10_4/uL

Question: And the RBC (72 h, tissue Blood, time 3 day)?
Answer: 633 x10_4/ul

Question: What about the Ret (72 h, tissue Blood, time 3 day) of the same sequence?
Answer: 5.4%

Question: And the WBC (72 h, tissue Blood, time 3 day)?
Answer: 112.5 x10_2/uL

Question: And the KIDNEY_L (72 h, time 3 day)?
Answer: 1 g

Question: What about the KIDNEY_R (72 h, time 3 day) of the same sequence?
Answer: 1 g

Question: And the KIDNEY_TOTAL (72 h, time 3 day)?
Answer: 2 g

Question: And the ALP [1]?
Answer: 1505 IU/L

Question: And the ALT [1]?
Answer: 38.6 IU/L

Question: And the AST [1]?
Answer: 67.6 IU/L

Question: What about the BUN [1] of the same sequence?
Answer: 18 mg/dL

Question: What about the CRE [1] of the same sequence?
Answer: 0.2 mg/dL

Question: And the DBIL [1]?
Answer: 0 mg/dL

Question: And the GLC [1]?
Answer: 182.4 mg/dL

Question: And the IP [1]?
Answer: 7.3 mg/dL

Question: And the K [1]?
Answer: 4.6 meq/L

Question: What about the LDH [1] of the same sequence?
Answer: 206.4 IU/L

Question: What about the PL [1] of the same sequence?
Answer: 150 mg/dL

Question: And the RALB [1]?
Answer: 3 g/dL

Question: And the TBIL [1]?
Answer: 0.004 mg/dL

Question: And the TC [1]?
Answer: 78.2 mg/dL

Question: And the TG [1]?
Answer: 103 mg/dL

Question: What about the TP [1] of the same sequence?
Answer: 5.4 g/dL

Question: And the gamma-GTP [1]?
Answer: 1.6 IU/L

Question: And the TERMINAL_BW ([…], time 7 day)?
Answer: 254.4 g

Question: And the TERMINAL_BW ([…], time 14 day)?
Answer: 298 g

Question: What about the TERMINAL_BW ([…], time 28 day) of the same sequence?
Answer: 364.6 g

Question: And the APTT ([…], tissue Blood, time 7 day)?
Answer: 23.5 s

Question: And the Bas ([…], tissue Blood, time 7 day)?
Answer: 0%

Question: And the Eos ([…], tissue Blood, time 7 day)?
Answer: 0.8%

Question: What about the Fbg ([…], tissue Blood, time 7 day) of the same sequence?
Answer: 312.2 mg/dL

Question: And the Ht ([…], tissue Blood, time 7 day)?
Answer: 40.5%

Question: What about the Lym ([…], tissue Blood, time 7 day) of the same sequence?
Answer: 81.4%

Question: And the MCH ([…], tissue Blood, time 7 day)?
Answer: 20.6 pg

Question: And the MCHC ([…], tissue Blood, time 7 day)?
Answer: 32.4%

Question: And the MCV ([…], tissue Blood, time 7 day)?
Answer: 63.6 fL

Question: What about the Mono ([…], tissue Blood, time 7 day) of the same sequence?
Answer: 2.4%

Question: What about the Plat ([…], tissue Blood, time 7 day) of the same sequence?
Answer: 123.2 x10_4/uL

Question: And the RBC ([…], tissue Blood, time 7 day)?
Answer: 638.2 x10_4/ul

Question: And the Ret ([…], tissue Blood, time 7 day)?
Answer: 4.9%

Question: And the WBC ([…], tissue Blood, time 7 day)?
Answer: 120.2 x10_2/uL

Question: And the APTT ([…], tissue Blood, time 14 day)?
Answer: 25.2 s

Question: What about the Bas ([…], tissue Blood, time 14 day) of the same sequence?
Answer: 0%

Question: And the Eos ([…], tissue Blood, time 14 day)?
Answer: 1%

Question: What about the Fbg ([…], tissue Blood, time 14 day) of the same sequence?
Answer: 296.8 mg/dL

Question: And the Hb ([…], tissue Blood, time 14 day)?
Answer: 13.6 g/dL

Question: And the Ht ([…], tissue Blood, time 14 day)?
Answer: 40.5%

Question: And the Lym ([…], tissue Blood, time 14 day)?
Answer: 80.8%

Question: And the MCHC ([…], tissue Blood, time 14 day)?
Answer: 33.6%

Question: What about the MCV ([…], tissue Blood, time 14 day) of the same sequence?
Answer: 60.3 fL

Question: What about the Mono ([…], tissue Blood, time 14 day) of the same sequence?
Answer: 3.4%

Question: What about the Plat ([…], tissue Blood, time 14 day) of the same sequence?
Answer: 128.4 x10_4/uL

Question: And the RBC ([…], tissue Blood, time 14 day)?
Answer: 672.4 x10_4/ul

Question: And the Ret ([…], tissue Blood, time 14 day)?
Answer: 3.6%

Question: What about the WBC ([…], tissue Blood, time 14 day) of the same sequence?
Answer: 136.2 x10_2/uL

Question: What about the APTT ([…], tissue Blood, time 28 day) of the same sequence?
Answer: 24.2 s

Question: What about the Bas ([…], tissue Blood, time 28 day) of the same sequence?
Answer: 0%

Question: What about the Eos ([…], tissue Blood, time 28 day) of the same sequence?
Answer: 1%

Question: What about the Fbg ([…], tissue Blood, time 28 day) of the same sequence?
Answer: 308.6 mg/dL

Question: What about the Ht ([…], tissue Blood, time 28 day) of the same sequence?
Answer: 42.1%

Question: What about the Lym ([…], tissue Blood, time 28 day) of the same sequence?
Answer: 82.2%

Question: And the MCH ([…], tissue Blood, time 28 day)?
Answer: 19.9 pg

Question: And the MCV ([…], tissue Blood, time 28 day)?
Answer: 56.5 fL

Question: What about the Mono ([…], tissue Blood, time 28 day) of the same sequence?
Answer: 2.6%

Question: And the PT ([…], tissue Blood, time 28 day)?
Answer: 16 s

Question: What about the Plat ([…], tissue Blood, time 28 day) of the same sequence?
Answer: 108.9 x10_4/uL

Question: What about the RBC ([…], tissue Blood, time 28 day) of the same sequence?
Answer: 746.2 x10_4/ul

Question: And the Ret ([…], tissue Blood, time 28 day)?
Answer: 2.1%

Question: What about the WBC ([…], tissue Blood, time 28 day) of the same sequence?
Answer: 150.1 x10_2/uL

Question: What about the KIDNEY_L ([…], time 7 day) of the same sequence?
Answer: 1.1 g

Question: And the KIDNEY_R ([…], time 7 day)?
Answer: 1.2 g

Question: And the KIDNEY_TOTAL ([…], time 7 day)?
Answer: 2.3 g

Question: And the KIDNEY_L ([…], time 14 day)?
Answer: 1.2 g

Question: And the KIDNEY_R ([…], time 14 day)?
Answer: 1.2 g

Question: And the KIDNEY_TOTAL ([…], time 14 day)?
Answer: 2.4 g

Question: What about the KIDNEY_L ([…], time 28 day) of the same sequence?
Answer: 1.3 g

Question: And the KIDNEY_R ([…], time 28 day)?
Answer: 1.3 g

Question: And the KIDNEY_TOTAL ([…], time 28 day)?
Answer: 2.7 g

Question: What about the LIVER ([…], time 14 day) of the same sequence?
Answer: 13.1 g

Question: And the LIVER ([…], time 28 day)?
Answer: 14.9 g

Question: And the ALP ([…], tissue Plasma, time 7 day)?
Answer: 1596.2 IU/L

Question: What about the ALT ([…], tissue Plasma, time 7 day) of the same sequence?
Answer: 39 IU/L

Question: What about the AST ([…], tissue Plasma, time 7 day) of the same sequence?
Answer: 70.6 IU/L

Question: What about the BUN ([…], tissue Plasma, time 7 day) of the same sequence?
Answer: 17.6 mg/dL

Question: What about the CRE ([…], tissue Plasma, time 7 day) of the same sequence?
Answer: 0.2 mg/dL

Question: And the DBIL ([…], tissue Plasma, time 7 day)?
Answer: 0 mg/dL

Question: What about the GLC ([…], tissue Plasma, time 7 day) of the same sequence?
Answer: 182.6 mg/dL

Question: What about the IP ([…], tissue Plasma, time 7 day) of the same sequence?
Answer: 7.8 mg/dL

Question: And the K ([…], tissue Plasma, time 7 day)?
Answer: 4.7 meq/L

Question: What about the LDH ([…], tissue Plasma, time 7 day) of the same sequence?
Answer: 172.8 IU/L

Question: And the PL ([…], tissue Plasma, time 7 day)?
Answer: 144 mg/dL

Question: What about the RALB ([…], tissue Plasma, time 7 day) of the same sequence?
Answer: 3.1 g/dL

Question: And the TBIL ([…], tissue Plasma, time 7 day)?
Answer: 0.002 mg/dL

Question: What about the TC ([…], tissue Plasma, time 7 day) of the same sequence?
Answer: 74.6 mg/dL

Question: And the TG ([…], tissue Plasma, time 7 day)?
Answer: 87.8 mg/dL

Question: What about the TP ([…], tissue Plasma, time 7 day) of the same sequence?
Answer: 5.6 g/dL

Question: And the gamma-GTP ([…], tissue Plasma, time 7 day)?
Answer: 2.2 IU/L

Question: And the ALP [2]?
Answer: 1124 IU/L

Question: And the ALT [2]?
Answer: 38.2 IU/L

Question: And the AST [2]?
Answer: 68.8 IU/L

Question: And the BUN [2]?
Answer: 17.2 mg/dL

Question: And the CRE [2]?
Answer: 0.2 mg/dL

Question: What about the DBIL [2] of the same sequence?
Answer: 0 mg/dL

Question: And the GLC [2]?
Answer: 203 mg/dL

Question: What about the IP [2] of the same sequence?
Answer: 6.9 mg/dL

Question: And the K [2]?
Answer: 4.3 meq/L

Question: And the LDH [2]?
Answer: 155.6 IU/L

Question: What about the Na [2] of the same sequence?
Answer: 140.4 meq/L

Question: What about the PL [2] of the same sequence?
Answer: 146 mg/dL

Question: And the RALB [2]?
Answer: 3 g/dL

Question: And the TBIL [2]?
Answer: 0.008 mg/dL

Question: What about the TC [2] of the same sequence?
Answer: 73.8 mg/dL

Question: And the TG [2]?
Answer: 110.8 mg/dL

Question: What about the TP [2] of the same sequence?
Answer: 5.7 g/dL

Question: And the gamma-GTP [2]?
Answer: 3.6 IU/L

Question: And the ALP [3]?
Answer: 1264.8 IU/L

Question: What about the ALT [3] of the same sequence?
Answer: 43 IU/L

Question: What about the AST [3] of the same sequence?
Answer: 76.2 IU/L

Question: And the BUN [3]?
Answer: 17.6 mg/dL

Question: What about the CRE [3] of the same sequence?
Answer: 0.2 mg/dL

Question: What about the DBIL [3] of the same sequence?
Answer: 0.002 mg/dL

Question: And the IP [3]?
Answer: 7.1 mg/dL

Question: And the K [3]?
Answer: 4.3 meq/L

Question: And the LDH [3]?
Answer: 202 IU/L

Question: What about the PL [3] of the same sequence?
Answer: 138.6 mg/dL

Question: And the RALB [3]?
Answer: 3 g/dL

Question: And the TBIL [3]?
Answer: 0.01 mg/dL

Question: What about the TC [3] of the same sequence?
Answer: 67.2 mg/dL

Question: What about the TG [3] of the same sequence?
Answer: 113 mg/dL

Question: What about the TP [3] of the same sequence?
Answer: 6 g/dL
